# Legend:
# MCF-7 breast cell line = experiment: MTT assay, anti-proliferative activity toward MCF-7; assay type: cell-based; settings: Homo sapiens, MCF7
# Procedure: . The developed compounds were evaluated in vitro using the MTT cell viability assay following the published techniques (Supplementary Data, page 42). […]
# The 96 well tissue culture plate was seeded with 1 X 10^5 cells / ml (100 ul / well) and cultured at 37 degrees Celsius for 24 hours to form a full monolayer sheet. After forming a confluent sheet of cells, growth medium was decanted from 96 well micro titer plates, the cell monolayer was washed twice with wash media, and two-fold dilutions of the tested sample were prepared in RPMI medium with 2% serum (maintenance medium). In each well, 0.1 ml of each dilution was examined, with three wells serving as controls and receiving only maintenance media.
# The plate was incubated at 37 degrees Celsius and then analyzed. Cells were examined for any physical evidence of toxicity, such as partial or total monolayer loss, rounding, shrinkage, or cell granulation. MTT solution (5mg/ml in PBS) was prepared (BIO BASIC CANADA INC), and 20ul MTT solution was added to each well. Shake the MTT into the medium for 5 minutes at 150rpm on a shaking table. Incubate for 4 hours (37°C, 5% CO2) to allow the MTT to be digested. Remove the media. (If required, dry plate on paper towels to remove residue. In 200ul DMSO, resuspend formazan (MTT metabolic product). Shake at 150rpm for 5 minutes to properly mix the formazan into the solvent. At 560nm, measure optical density and subtract background at 620nm. The optical density should be proportional to the number of cells. MCF-7 and MCF-10A cell lines were provided with 10% fetal bovine serum (FBS, Sigma-Aldrich, MO, USA). Data are presented as the mean of the IC50 values ± SD from three different experiments. […]
# VEGFR-2 = VEGFR-2 (Homo sapiens, UniProt P35968); experiment: In vitro VEGFR-2 kinase inhibition assay; assay type: biochemical; settings: mean ± SD of three experiments
# Bax = experiment: RT-PCR gene expression in treated MCF-7 cells: Bax; assay type: cell-based; settings: treated MCF-7 cells vs untreated control MCF-7 (=1)
# Procedure: (§1) The gene expression levels of apoptosis genes in MCF-7 cells were measured using RT-PCR to validate the apoptosis-inducing behaviors of the potent lead compound 6i in MCF-7 cells.
# (§2) The gene expression levels of apoptosis genes were evaluated in MCF-7 cells using the following approaches in the Supplementary Data, page 43.
# (§3) Inhibitor solution of each well labeled as “Test Inhibitor”. For the “Positive Control" and “Blank”, add 5 μl of the same solution without inhibitor (Inhibitor buffer). Prepare 3 ml of 1x Kinase Buffer 1 by mixing 600 μl of 5x Kinase Buffer 1 with 2400 μl water. 3 ml of 1x Kinase Buffer 1 is sufficient for 100 reactions. To the wells designated as "Blank", add 20 μl of 1x Kinase Buffer 1.
# (§4) Thaw VEGFR2 enzyme on ice. Upon first thaw, briefly spin tube containing enzyme to recover full content of the tube. Calculate the amount of VEGFR2 required for the assay and dilute enzyme to 1 ng/μl with 1x Kinase Buffer 1. Store remaining undiluted enzyme in aliquots at -80°C. Note:
# (§5) VEGFR2 enzyme is sensitive to freeze/thaw cycles. Avoid multiple freeze/thaw cycles. […]
# (§6) use thawed aliquots or diluted enzyme. […]
# (§7) thoroughly, and then centrifuge at 4°C to collect contents to the bottom of the tube. […] Preparation of a reaction cocktail is crucial in quantitative PCR applications to reduce pipetting errors and maximize assay precision and accuracy. […]
# Caspase-8 = experiment: RT-PCR gene expression in treated MCF-7 cells: caspase 8; assay type: cell-based; settings: treated MCF-7 cells vs untreated control MCF-7 (=1)
# Procedure: as §1, §2, §3, §4, §5, §6, §7
# Cytochrome C = experiment: RT-PCR gene expression in treated MCF-7 cells: cytochrome C; assay type: cell-based; settings: treated MCF-7 cells vs untreated control MCF-7 (=1)
# Procedure: as §1, §2, §3, §4, §5, §6, §7
# Bcl-2 = experiment: RT-PCR gene expression in treated MCF-7 cells: Bcl-2; assay type: cell-based; settings: treated MCF-7 cells vs untreated control MCF-7 (=1)
# Procedure: as §1, §2, §3, §4, §5, §6, §7
# Sequence of VEGFR-2 (P35968 20-1356): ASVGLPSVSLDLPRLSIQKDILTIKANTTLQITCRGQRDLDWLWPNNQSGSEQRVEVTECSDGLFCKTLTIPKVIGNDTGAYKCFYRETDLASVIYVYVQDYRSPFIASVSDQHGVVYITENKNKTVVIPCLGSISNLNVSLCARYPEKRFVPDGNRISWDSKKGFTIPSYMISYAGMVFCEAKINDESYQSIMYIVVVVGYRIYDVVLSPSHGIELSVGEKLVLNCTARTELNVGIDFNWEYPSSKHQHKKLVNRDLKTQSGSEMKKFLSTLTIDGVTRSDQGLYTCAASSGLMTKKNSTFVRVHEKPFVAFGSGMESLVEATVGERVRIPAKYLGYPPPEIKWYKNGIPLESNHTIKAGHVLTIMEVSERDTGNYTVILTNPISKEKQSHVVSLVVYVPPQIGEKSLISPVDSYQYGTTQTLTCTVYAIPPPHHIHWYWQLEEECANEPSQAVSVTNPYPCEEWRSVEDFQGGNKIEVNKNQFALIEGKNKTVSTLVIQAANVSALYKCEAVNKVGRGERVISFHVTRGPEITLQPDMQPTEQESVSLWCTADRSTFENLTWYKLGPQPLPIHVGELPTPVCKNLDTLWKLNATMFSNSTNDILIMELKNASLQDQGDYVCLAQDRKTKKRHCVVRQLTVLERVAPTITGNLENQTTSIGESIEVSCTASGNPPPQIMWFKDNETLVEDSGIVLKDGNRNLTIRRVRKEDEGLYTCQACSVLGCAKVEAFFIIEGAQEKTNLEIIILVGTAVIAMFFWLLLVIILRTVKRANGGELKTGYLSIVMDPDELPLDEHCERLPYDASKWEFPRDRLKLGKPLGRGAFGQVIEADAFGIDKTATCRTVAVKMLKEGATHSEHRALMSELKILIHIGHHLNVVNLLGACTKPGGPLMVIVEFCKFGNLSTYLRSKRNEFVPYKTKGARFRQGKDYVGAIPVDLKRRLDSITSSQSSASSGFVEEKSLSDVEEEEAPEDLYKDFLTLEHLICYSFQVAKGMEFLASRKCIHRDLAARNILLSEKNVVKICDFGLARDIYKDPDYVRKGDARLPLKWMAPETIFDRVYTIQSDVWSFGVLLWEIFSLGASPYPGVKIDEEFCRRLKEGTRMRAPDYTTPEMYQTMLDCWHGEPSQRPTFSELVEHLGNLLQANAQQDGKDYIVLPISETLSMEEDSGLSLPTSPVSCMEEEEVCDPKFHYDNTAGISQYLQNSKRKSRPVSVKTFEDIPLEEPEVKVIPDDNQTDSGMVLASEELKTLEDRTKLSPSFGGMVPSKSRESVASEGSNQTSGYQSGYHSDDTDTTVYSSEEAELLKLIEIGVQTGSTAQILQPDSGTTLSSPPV
structure (smiles),measurement,setting,value
"CCCCN1C(=O)C(=NNC(=O)c2c(C)nc3sccn23)c2ccccc21 [Compound 6i, N′-(1-Butyl-2-oxoindolin-3-ylidene)-6-methylimidazo[2,1-b]thiazole-5-carbohydrazide]",IC50,MCF-7 breast cell line,8.38 ± 0.62 µM
same,IC50,VEGFR-2,0.33 ± 0.01 µM
same,RT-PCR Fold Change Bax,Bax,4.337 fold
same,RT-PCR Fold Change Caspase-8,Caspase-8,2.727 fold
same,RT-PCR Fold Change Cytochrome C,Cytochrome C,2.420 fold
same,RT-PCR Fold Change Bcl-2,Bcl-2,0.359 fold
same,melting point,,250 to 251 °C
